Measurements published in PubChem BioAssay AID588632 (Broad Institute, 2011).
Records with an inconclusive call do not appear. The source made the active and inactive calls.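 How the source made its calls: active means compounds lowering signal with fitted half-maximal concentration within ten times the top tested dose in every test run; inconclusive means test runs disagree, or a run had a weak flat or poor fit; inactive means every test run inactive.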

Target: Serine/threonine-protein kinase 33 (Homo sapiens) (UniProt Q9BYT3)
Assay: STK33 kinase inhibitors, potency, dose response, biochemical, ADP-Glo luminescence, dry powder (AID 588632)
Settings: purified STK33, MBP phosphorylation; for activity change, negative = inhibition: at 10 µM (top of the series)

Serine/threonine-protein kinase 33 (Homo sapiens), sequence (Q9BYT3 whole entry, looked up): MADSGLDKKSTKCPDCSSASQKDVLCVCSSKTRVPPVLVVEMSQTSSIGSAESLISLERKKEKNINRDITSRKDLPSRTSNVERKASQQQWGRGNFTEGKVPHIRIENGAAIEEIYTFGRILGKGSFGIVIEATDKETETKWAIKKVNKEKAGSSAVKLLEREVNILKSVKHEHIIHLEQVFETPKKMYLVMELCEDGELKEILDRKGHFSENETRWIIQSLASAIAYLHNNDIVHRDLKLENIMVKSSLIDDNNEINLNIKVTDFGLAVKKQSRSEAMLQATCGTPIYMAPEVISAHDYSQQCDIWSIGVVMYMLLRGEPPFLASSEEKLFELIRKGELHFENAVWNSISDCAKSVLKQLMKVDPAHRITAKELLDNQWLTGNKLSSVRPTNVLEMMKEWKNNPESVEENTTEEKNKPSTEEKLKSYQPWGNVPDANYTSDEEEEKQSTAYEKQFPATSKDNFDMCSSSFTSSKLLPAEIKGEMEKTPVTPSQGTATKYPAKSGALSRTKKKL

Row | AC50 [nM] | activity change, negative = inhibition | Structure (SMILES)
1 | 122 |  | CCCn1c(NC(=O)c2cccc(S(=O)(=O)N3CCCC3)c2)nc2ccccc21
2 | 1130 |  | CC(=O)N(C)c1ccc(N=Cc2c(O)ccc3ccccc23)cc1
3 | 6450 |  | COc1cc(C(=O)N2CCC(N3CCN(C)CC3)CC2)ccc1Nc1ncc2c(n1)N(C)c1ccccc1C(=O)N2C
4 |  | inactive | CCC(CO)Oc1cc(NC(=O)c2ccccc2Cl)c2ncn(C(C)C)c2c1 (stereo not drawn)
5 |  | inactive | CCC(CO)Oc1cc(NCc2ccccc2)c2ncn(C3CCCC3)c2c1 (stereo not drawn)
6 |  | inactive | COc1cc(NCc2ccccc2)c2ncn(C(C)C)c2c1
7 | 795 |  | Cc1ncc(/C=C2\C(=O)Nc3ccccc32)[nH]1
8 | 695 |  | COc1cc(/C=N/n2c(-c3ccccc3)n[nH]c2=S)ccc1O
9 |  | inactive | CCC(CO)Oc1cc(NC(=O)c2ccccc2)c2ncn(C(C)C)c2c1 (stereo not drawn)
10 | 1580 |  | O=C(Nc1ccccc1-c1ccccc1)c1ccc(Br)o1
11 | 1600 |  | COc1cc(N2CCN(C)CC2)ccc1Nc1ncc2c(n1)N(C)c1ccccc1C(=O)N2C
12 | 811 |  | Oc1ccc(Nc2nc(-c3ccccc3O)nc3ccccc23)cc1
13 |  | inactive | CCC(CO)Oc1cc(NC(=O)c2ccccc2OC)c2ncn(C(C)C)c2c1 (stereo not drawn)
14 | 151 |  | Nc1nc(-c2cc(O)ccc2[N+](=O)[O-])cc(-c2ccccc2)c1[N+](=O)[O-]
15 | 509 |  | COc1cc(N2CCC(O)CC2)ccc1Nc1ncc2c(n1)N1CCc3cccc(c31)C(=O)N2C
16 |  | inactive | COCCCOc1cc(NCc2ccccc2)c2ncn(C(C)C)c2c1
17 |  | inactive | CCC(CO)Oc1cc(NCc2ccccc2)c2ncn(C(C)C)c2c1 (stereo not drawn)
18 | 400 |  | COC(=O)c1ccc(COc2ccccc2/C=C/C(=O)c2ccc(OCC(=O)O)cc2)cc1
19 | 1130 |  | CN1CCN(c2ccc(Nc3ncc4c(n3)N(C)c3ccccc3C(=O)N4C)cc2)CC1
20 | 1250 |  | CCOc1ccccc1C(=O)Nc1cc(Cl)ccc1O
21 | 522 |  | O=C1NC(=NCc2ccccc2)S/C1=C/c1ccc(O)cc1
22 |  | inactive | CCC(CO)Oc1cc(NC(=O)c2ccccc2C)c2ncn(C(C)C)c2c1 (stereo not drawn)
23 | 331 |  | O=C(Nc1ccccc1-c1nc2ccccc2[nH]c1=O)c1cccs1
24 | 314 |  | COc1cc(/C=C2\SC(=Nc3ccccc3OC)NC2=O)ccc1O
25 | 574 |  | COc1cc(/C=C2\SC(N)=NC2=O)ccc1O

The next lines start with the compound.

Row | Structure (SMILES) | AC50 [nM] | activity change, negative = inhibition
26 | COc1cc(N2CCC(N3CCN(C)CC3)CC2)ccc1Nc1ncc2c(n1)N1CCC[C@H]1CC(=O)N2C | 1880 | 
27 | COc1cc(N2CCC(N3CCN(C)CC3)CC2)ccc1Nc1ncc2c(n1)N(C1CCCC1)C(C)CC(=O)N2C (stereo not drawn) | 2200 | 
28 | CCC(CO)Oc1cc(NC(=O)c2ccc([N+](=O)[O-])cc2)c2ncn(C(C)C)c2c1 (stereo not drawn) |  | inactive
29 | CC(Oc1ccc2c(c1)c1ccnc3c4ccccc4c(=O)n2c13)C(=O)NCCN1CCOCC1 (stereo not drawn) | 168 | 
30 | CCC(CO)Oc1cc(NC(=O)c2cccc(C)c2)c2ncn(C(C)C)c2c1 (stereo not drawn) |  | inactive
31 | CCC(CO)Oc1cc(NC(=O)c2cccc(Cl)c2)c2ncn(C(C)C)c2c1 (stereo not drawn) |  | inactive
32 | CCC(CO)Oc1cc(NC(=O)c2ccc(N)cc2)c2ncn(C(C)C)c2c1 (stereo not drawn) |  | inactive
33 | CCC(CO)Oc1cc(NC(=O)c2ccc(F)cc2)c2ncn(C(C)C)c2c1 (stereo not drawn) |  | inactive
34 | COc1cc(N2CCN(C)CC2)ccc1Nc1ncc2c(n1)N1CCC[C@H]1CC(=O)N2C | 409 | 
35 | CCC(CO)Oc1cc(NC(=O)c2cccc([N+](=O)[O-])c2)c2ncn(C(C)C)c2c1 (stereo not drawn) |  | inactive
36 | CCC(CO)Oc1cc(NC(=O)c2ccccc2N)c2ncn(C(C)C)c2c1 (stereo not drawn) |  | inactive
37 | CCC(CO)Oc1cc(NC(=O)c2cccc(N)c2)c2ncn(C(C)C)c2c1 (stereo not drawn) |  | inactive
38 | CCC(CO)Oc1cc(NC(=O)c2cccc(F)c2)c2ncn(C(C)C)c2c1 (stereo not drawn) |  | inactive
39 | CCC(CO)Oc1cc(NC(=O)c2ccc(OC)cc2)c2ncn(C(C)C)c2c1 (stereo not drawn) |  | inactive
40 | O=C1NCCCc2c1oc1ccc(O)cc21 | 939 | 
41 | COc1cc(N2CCN(C)CC2)ccc1Nc1ncc2c(n1)N(C)c1sccc1C(=O)N2C | 1560 | 
42 | CCC(CO)Oc1cc(NC(=O)c2ccc(C)cc2)c2ncn(C(C)C)c2c1 (stereo not drawn) |  | inactive
43 | CC(C)n1cnc2c(Nc3cccc(Cl)c3)nc(NCCO)nc21 | 632 | 
44 | CCC(CO)Oc1cc(NC(=O)c2ccc(Cl)cc2)c2ncn(C(C)C)c2c1 (stereo not drawn) |  | inactive
45 | CC(C)n1cnc2c(NCc3ccccc3)cc(OCCCN3CCOCC3)cc21 |  | inactive
46 | COc1cc(C(=O)NC2CCN(C)CC2)ccc1Nc1ncc2c(n1)N(C1CCC(O)CC1)CCC(=O)N2C (stereo not drawn) | 1180 | 
47 | COc1cc(N2CCN(C)CC2)ccc1Nc1ncc2c(n1)N(C1CCCC1)C(C)CC(=O)N2C (stereo not drawn) | 910 | 
48 | CCC(CO)Oc1cc(NC(=O)c2cccc(OC)c2)c2ncn(C(C)C)c2c1 (stereo not drawn) |  | inactive
